“Also recorded” adds a separate entry of the source.
Columns and labels:
[1] = test system: CD4; assay: Antibody binding to surface antigen on PEG-phospholipid coated CCRF-CEM, flow cytometry; type: cell-based, human; conditions: 2 mg/ml in PBS, 30 minutes room temperature; antigen 15 nm
Experimental: (§1) CCRF-CEM were collected from cell culture medium (1×10^6 cells) and washed with PBS by centrifugation (250×g, 3 min, RT). A cell pellet of CCRF-CEM (1×10^6 cells) was incubated with PEG-phospholipid (50 μl, 2 mg/ml in PBS), 5 kDa unconjugated PEG (50 μl, 2 mg/ml in PBS) or PBS (50 μl, as control) for 30 min at RT with gentle mixing. After washing with PBS by centrifugation (200×g, 4° C., 3 min) twice, FITC-labeled three antibodies, FITC-anti-human CD52 from BioLegend (400 μg/ml, 40 μl), FITC-anti-human CD4 from BioLegend (200 μg/ml, 40 μl), or Alexa488-labelled anti-human CD8 from GeneTex (200 μg/ml, 40 μl, Alexa488 was labelled by the labelling kit) or PBS (40 μl) was mixed with the treated CCRF-CEM for 15 min at RT. As a control, CCRF-CEM was treated with 2 mg/ml PEG (5 kDa, in PBS) solution and additionally incubated with FITC- or Alexa488-labeled antibodies. After washing with PBS by centrifugation (200×g, 4° C., 3 min), CCRF-CEM were re-suspended with PBS (1 ml) for flow cytometry measurements. Samples were analyzed on a flow cytometer (BD LSR II, BD Biosciences). Post analysis processing was carried out in FlowJo (BD).
(§2) CCRF-CEM cells were incubated with PEG-phospholipid (2 mg/ml in PBS), free PEG (5 kDa, equivalent molecular weight used in the synthesis of PEG-phospholipid) or PBS (vehicle control) for 30 minutes at room temperature. After removing excess PEG-phospholipid, FITC-labelled antibodies directed towards surface antigens of different sizes, CD52, CD4, and CD8, were added. Samples were analyzed on a flow cytometer. […] The size of CD8 is estimated to be around 5-10 nm based on the crystal structure of the non-membranous part. Lastly, CD4-antibodies were not blocked by PEG-phospholipid, as expected, given that the size of the antigen (15 nm) is larger than the size of PEG-phospholipid (estimated to be around 6 nm) (FIG. 3A).

[2] = test system: CD52; assay: as above; type: cell-based, human; conditions: 2 mg/ml in PBS, 30 minutes room temperature; antigen around 1 nm
Experimental: as §1, §2

[3] = test system: CD8; assay: as above; type: cell-based, human; conditions: 2 mg/ml in PBS, 30 minutes room temperature; antigen around 5-10 nm
Experimental: as §1, §2

[4] = test system: collectin-11 (CL-11); assay: Binding of lectin pathway recognition molecule to coated HUVEC after plasma exposure, flow cytometry; type: cell-based; conditions: 0.5 mg/ml, after human plasma exposure
Experimental: (§3) Post analysis processing was carried out in FlowJo.

[5] = test system: CD31; assay: Masking of antigens on HUVECs by coating with PEG-phospholipid, flow cytometry; type: cell-based, human; conditions: HUVEC, 0.5 mg/ml, 45 mins RT
Experimental: (§4) One hundred μL of HUVEC cell pellet (5×10^4 cells) were incubated in 0.5 mg/ml of PEG-phospholipid solution (final concentration, polyethylene glycol-phospholipid with PEG of 5 kDa (PEG-phospholipid) in PBS, SUNBRIGHT® PP-050CN, N-(methylpolyoxyethylene oxycarbonyl)-1,2-dipalmitoyl-sn-glycero-3-phosphoethanolamine, sodium salt, NOF Corp., Japan) or PBS for 45 mins at RT. Then, the cells were incubated with 5 μg/mL of FITC labelled antibodies for 15 min at RT: CD31 antibody (5 μg/ml) or isotype control Ab-FITC (BD biosciences) or with rabbit anti von Willebrand Factor (vWF) with rabbit IgG as control, both visualized by Alexa 488 goat anti-rabbit antibodies as given in Table 1.
as §3

[6] = test system: von Willebrand Factor (vWF); assay: as above; type: cell-based, human; conditions: HUVEC, 0.5 mg/ml, 45 mins RT
Experimental: as §4, §3

[7] = test system: mannan binding lectin (MBL); assay: Binding of lectin pathway recognition molecule to coated HUVEC after serum exposure, flow cytometry; type: cell-based, human; conditions: 0.5 mg/ml
Experimental: as §3

[8] = Vascular and tubular distribution and detachment of PEG-phospholipid in vivo (transplanted pig kidney)
Experimental: Full information on donor and recipient pigs is given in Example 5. […] Four recipient pigs were transplanted with biotin-PEG-phospholipid-treated kidneys. Their native kidneys were not removed and remained in the animals throughout the study. The four recipient pigs were euthanized after 12, 24, 48 and 72 h, respectively and biopsies were taken at euthanasia from the biotin-PEG-phospholipid treated kidney and one of the native kidneys. Frozen sections (4 μm thickness) were incubated in Alexa488-streptavidin (GE Healthcare, 1:500) at RT for 10 min. The sections were analyzed by laser-scanning confocal microscopy (LSM510, META, Carl Zeiss, Germany).
Frozen sections (4 μm thickness) of kidneys treated with biotin-PEG-phospholipid and control kidneys were incubated in Alexa488-streptavidin (GE Healthcare, 1:500) at RT for 10 min. The sections were analyzed by laser-scanning confocal microscopy (LSM510, META, Carl Zeiss, Germany).

[9] = test system: HLA Class I (antibody W6/32); assay: Anti-HLA antibody binding to PEG-phospholipid treated PBMCs, flow cytometry; type: cell-based; conditions: freshly isolated human PBMC
Text: (§5) To test the efficacy of the PEG-phospholipid (SUNBRIGHT®) PP-050CN, N-(methylpolyoxyethylene oxycarbonyl)-1,2-dipalmitoyl-sn-glycero-3-phosphoethanolamine, sodium salt, NOF Corp., Japan) to block binding of anti-HLA antibodies to HLA antigens, similar to in a potential clinical setting, we used human PBMCs from healthy donors to block the HLA antigens.
(§6) • FITC Mouse Anti-Human HLA-ABC; Monoclonal (G46-2.6) (BD Pharmingen) cat no. 555552 • Biotin Mouse Anti-human HLA Class I antibody [W6/32] (Abcam) cat no. ab110665 • PE-streptavidin (BD Pharmingen) cat no. 554061
(§7) PBMC was isolated from whole blood by using Cytiva™ Ficoll-Paque™ PLUS Media (Cytiva 17-1440-02) following standard protocol. In brief, whole blood was diluted in equal volume of PBS and carefully layered on top of Ficoll paque and centrifuged at 800×g for 25 mins. A cloudy layer was separated from the top of Ficoll and washed twice again with PBS.
(§8) The cells were stained with FITC mouse anti-human HLA-ABC monoclonal antibodies and biotin mouse anti-human HLA class | antibody [W6/32] (Abcam) followed by PE-streptavidin. The stained cells were analyzed by Beckman coulter cytoflex S (Biovis, facility, IGP, Rudbeck laboratory).

[10] = test system: HLA-ABC (antibody G46-2.6); assay: as above; type: cell-based; conditions: freshly isolated human PBMC
Text: as §5, §6, §7, §8

## N-(methylpolyoxyethylene oxycarbonyl)-1,2-dipalmitoyl-sn-glycero-3-phosphoethanolamine [PEG-phospholipid]
[1]
  binding of CD4-antibodies: not blocked; also recorded: no significant masking
[2]
  binding of antibodies directed towards CD52: entirely blocked; also recorded: near complete inhibition; also recorded: effective masking
[3]
  binding capacity of CD8-antibodies: reduced but not entirely blocked; also recorded: partial masking
[4]
  binding of CL-11: substantially reduced
[5]
  masking of CD31: < 20%
[6]
  detection of vWF: did not decrease
[7]
  decrease of MBL binding from human serum: 25-30%
[8]; pig kidney, biotin-labeled PEG-phospholipid, 95% confidence interval 8-26
  t½ of PEG-phospholipid calculated from fluorescence images: 14 h
[8]; reliably detected only after 1 hour
  systemic leakage of PEG-phospholipid (autologous kidneys of the recipient): very low
[9]
  binding of anti-HLA class I antibodies W6/32 to PBMCs: robust inhibition
[9]; listed as PEG-phospholipids
  binding of anti-HLA class I antibodies W6/32 to PBMCs: inhibited
[10]
  binding of anti-HLA-ABC G46-2.6 to PBMCs: robust inhibition
[10]; listed as PEG-phospholipids
  binding of anti-HLA-ABC G46-2.6 to PBMCs: inhibited

— patent US20250177448A1, “NEW USE OF PEG-PHOSPHOLIPID MOLECULES” (ICOAT MEDICAL AB, priority 2022, published 2025)
